# Results as given in patent US20030171329A1, “Stable compositions comprising tezacitabine” (priority 2002, published 2003).
# Read-outs that look alike come from different tables or passages of the source.
# Assays:
# [1] = Description: In this study the stabilty of FMdC glutamate and glycine buffers at pH 8.5 to 9.5 was evaluated at various storage conditions (5°, 25°, 35°, 45°, and 55° C.). FMdC solutions were made up at 1 mg/mL in 7.1 mg/mL monosodium glutamate monohydrate (38 mM) or 2.8 mg/mL glycine (37 mM) and pH adjusted to target with sodium hydroxide. Solution samples were placed in stoppered glass vials and stored at the various temperatures. […] Detention was by UV at 268 nm.
# The higher-temperature data can be evaluated further by Arrhenius analysis to predict shelf lives at lower temperatures. First-order rate constants are determined by fitting the concentration and time data to an equation of the form C(t)=C(0)·exp (−k·t), where C(t) is the concentration at time t, C(0) is the concentration at time 0, t is the time, and k is the first-order rate constant. The rate constants are in turn fitted to an equation of the form k (T)=A·exp (−Ea/RT), where k(T) is the rate constant at temperature T, Ea is the energy of activation, R is the gas constant, T is the absolute temperature (in ° K), and A is a constant.
# human and rodent tumors = conditions: tumors of lung, colon, breast, prostate, pancreas, leukemias and lymphomas; cited from earlier work
# [2] = Glutamate pH 8.5 buffer, 5° C., 24 weeks
# [3] = Glutamate pH 8.5 buffer, 25° C., 0 weeks
# [4] = Glutamate pH 8.5 buffer, 25° C., 4 weeks
# [5] = Glutamate pH 8.5 buffer, 25° C., 16 weeks
# [6] = Glutamate pH 8.5 buffer, 25° C., 24 weeks
# [7] = Glutamate pH 8.5 buffer, 35° C., 0 weeks
# [8] = Glutamate pH 8.5 buffer, 35° C., 4 weeks
# [9] = Glutamate pH 8.5 buffer, 35° C., 16 weeks
# [10] = Glutamate pH 8.5 buffer, 35° C., 24 weeks
# [11] = Glutamate pH 8.5 buffer, 45° C., 0 weeks
# [12] = Glutamate pH 8.5 buffer, 45° C., 4 weeks
# [13] = Glutamate pH 9.0 buffer, 5° C., 24 weeks
# [14] = Glutamate pH 9.0 buffer, 25° C., 0 weeks
# [15] = Glutamate pH 9.0 buffer, 25° C., 4 weeks
# [16] = Glutamate pH 9.0 buffer, 25° C., 16 weeks
# [17] = Glutamate pH 9.0 buffer, 25° C., 24 weeks
# [18] = Glutamate pH 9.0 buffer, 35° C., 0 weeks
# [19] = Glutamate pH 9.0 buffer, 35° C., 4 weeks
# [20] = Glutamate pH 9.0 buffer, 35° C., 16 weeks
# [21] = Glutamate pH 9.0 buffer, 35° C., 24 weeks
# [22] = Glutamate pH 9.0 buffer, 45° C., 0 weeks
# [23] = Glutamate pH 9.0 buffer, 45° C., 4 weeks
# [24] = Glutamate pH 9.5 buffer, 5° C., 24 weeks
# [25] = Glutamate pH 9.5 buffer, 25° C., 0 weeks
# [26] = Glutamate pH 9.5 buffer, 25° C., 4 weeks
# [27] = Glutamate pH 9.5 buffer, 25° C., 16 weeks
# [28] = Glutamate pH 9.5 buffer, 25° C., 24 weeks
# [29] = Glutamate pH 9.5 buffer, 35° C., 0 weeks
# [30] = Glutamate pH 9.5 buffer, 35° C., 4 weeks
# [31] = Glutamate pH 9.5 buffer, 35° C., 16 weeks
# [32] = Glutamate pH 9.5 buffer, 35° C., 24 weeks
# [33] = Glutamate pH 9.5 buffer, 45° C., 0 weeks
# [34] = Glutamate pH 9.5 buffer, 45° C., 4 weeks
# [35] = Glycine pH 9.0 buffer, 5° C., 24 weeks
# [36] = Glycine pH 9.0 buffer, 25° C., 0 weeks
# [37] = Glycine pH 9.0 buffer, 25° C., 4 weeks
# [38] = Glycine pH 9.0 buffer, 25° C., 16 weeks
# [39] = Glycine pH 9.0 buffer, 25° C., 24 weeks
# [40] = Glycine pH 9.0 buffer, 35° C., 0 weeks
# [41] = Glycine pH 9.0 buffer, 35° C., 16 weeks
# [42] = Glycine pH 9.0 buffer, 35° C., 24 weeks
# [43] = Glycine pH 9.0 buffer, 45° C., 0 weeks
smiles,measurement,setting,value
"Nc1ccn([C@@H]2O[C@H](CO)[C@@H](O)/C2=C\F)c(=O)n1 [FMdC, (E)-2′-deoxy-2′-(fluoromethylene)cytidine]",stability in words,[1]; 1 mg/mL,stable for almost 6 months
same,predicted first-order rate constant of degradation,"[1]; 1 mg/mL, pH 9",3.0·10^−4 week^−1
same,FMdC,"[1]; Glutamate pH 8.5 buffer, 5° C., 12 weeks",1.00 mg/mL
same,pH,"[1]; Glutamate pH 8.5 buffer, 5° C., 16 weeks",8.63
same,FMdC,[1]; [2],1.00 mg/mL
same,pH,[1]; [2],8.66
same,FMdC,[1]; [3],1.00 mg/mL
same,pH,[1]; [3],8.50
same,FMdC,[1]; [4],1.00 mg/mL
same,pH,[1]; [4],8.55
same,FMdC,[1]; [5],0.99 mg/mL
same,pH,[1]; [5],7.93
same,FMdC,[1]; [6],0.99 mg/mL
same,pH,[1]; [6],8.64
same,FMdC,[1]; [7],1.00 mg/mL
same,pH,[1]; [7],8.50
same,FMdC,[1]; [8],1.00 mg/mL
same,pH,[1]; [8],8.55
same,FMdC,[1]; [9],0.97 mg/mL
same,pH,[1]; [9],8.59
same,FMdC,[1]; [10],0.95 mg/mL
same,pH,[1]; [10],8.58
same,FMdC,[1]; [11],1.00 mg/mL
same,pH,[1]; [11],8.50
same,FMdC,[1]; [12],0.98 mg/mL
same,pH,[1]; [12],8.56
same,FMdC,"[1]; Glutamate pH 8.5 buffer, 45° C., 16 weeks",0.85 mg/mL
same,FMdC,"[1]; Glutamate pH 8.5 buffer, 45° C., 24 weeks",0.47 mg/mL
same,FMdC,"[1]; Glutamate pH 8.5 buffer, 55° C., 0 weeks",1.00 mg/mL
same,FMdC,"[1]; Glutamate pH 8.5 buffer, 55° C., 2 weeks",0.91 mg/mL
same,FMdC,"[1]; Glutamate pH 8.5 buffer, 55° C., 4 weeks",0.72 mg/mL
same,FMdC,"[1]; Glutamate pH 8.5 buffer, 55° C., 8 weeks",0.03 mg/mL
same,FMdC,"[1]; Glutamate pH 9.0 buffer, 5° C., 12 weeks",1.00 mg/mL
same,pH,"[1]; Glutamate pH 9.0 buffer, 5° C., 16 weeks",9.10
same,FMdC,[1]; [13],1.00 mg/mL
same,pH,[1]; [13],9.05
same,FMdC,[1]; [14],1.01 mg/mL
same,pH,[1]; [14],9.00
same,FMdC,[1]; [15],1.01 mg/mL
same,pH,[1]; [15],9.07
same,FMdC,[1]; [16],0.99 mg/mL
same,pH,[1]; [16],8.80
same,FMdC,[1]; [17],0.99 mg/mL
same,pH,[1]; [17],9.09
same,FMdC,[1]; [18],1.01 mg/mL
same,pH,[1]; [18],9.00
same,FMdC,[1]; [19],1.01 mg/mL
same,pH,[1]; [19],9.06
same,FMdC,[1]; [20],0.98 mg/mL
same,pH,[1]; [20],9.08
same,FMdC,[1]; [21],0.98 mg/mL
same,pH,[1]; [21],9.08
same,FMdC,[1]; [22],1.01 mg/mL
same,pH,[1]; [22],9.00
same,FMdC,[1]; [23],0.99 mg/mL
same,pH,[1]; [23],9.04
same,FMdC,"[1]; Glutamate pH 9.0 buffer, 45° C., 16 weeks",0.92 mg/mL
same,FMdC,"[1]; Glutamate pH 9.0 buffer, 45° C., 24 weeks",0.88 mg/mL
same,FMdC,"[1]; Glutamate pH 9.0 buffer, 55° C., 0 weeks",1.01 mg/mL
same,FMdC,"[1]; Glutamate pH 9.0 buffer, 55° C., 2 weeks",0.96 mg/mL
same,FMdC,"[1]; Glutamate pH 9.0 buffer, 55° C., 4 weeks",0.91 mg/mL
same,FMdC,"[1]; Glutamate pH 9.0 buffer, 55° C., 8 weeks",0.78 mg/mL
same,FMdC,"[1]; Glutamate pH 9.5 buffer, 5° C., 12 weeks",1.00 mglmL
same,pH,"[1]; Glutamate pH 9.5 buffer, 5° C., 16 weeks",9.54
same,FMdC,[1]; [24],1.01 mglmL
same,pH,[1]; [24],9.57
same,FMdC,[1]; [25],1.00 mglmL
same,pH,[1]; [25],9.50
same,FMdC,[1]; [26],1.00 mglmL
same,pH,[1]; [26],9.53
same,FMdC,[1]; [27],1.00 mglmL
same,pH,[1]; [27],9.55
same,FMdC,[1]; [28],0.99 mglmL
same,pH,[1]; [28],9.57
same,FMdC,[1]; [29],1.00 mglmL
same,pH,[1]; [29],9.50
same,FMdC,[1]; [30],1.00 mglmL
same,pH,[1]; [30],9.54
same,FMdC,[1]; [31],0.98 mglmL
same,pH,[1]; [31],9.59
same,FMdC,[1]; [32],0.97 mglmL
same,pH,[1]; [32],9.62
same,FMdC,[1]; [33],1.00 mglmL
same,pH,[1]; [33],9.50
same,FMdC,[1]; [34],0.99 mglmL
same,pH,[1]; [34],9.56
same,FMdC,"[1]; Glutamate pH 9.5 buffer, 45° C., 16 weeks",0.92 mglmL
same,FMdC,"[1]; Glutamate pH 9.5 buffer, 45° C., 24 weeks",0.89 mglmL
same,FMdC,"[1]; Glutamate pH 9.5 buffer, 55° C., 0 weeks",1.00 mglmL
same,FMdC,"[1]; Glutamate pH 9.5 buffer, 55° C., 2 weeks",0.97 mglmL
same,FMdC,"[1]; Glutamate pH 9.5 buffer, 55° C., 4 weeks",0.93 mglmL
same,FMdC,"[1]; Glutamate pH 9.5 buffer, 55° C., 8 weeks",0.82 mglmL
same,FMdC,"[1]; Glycine pH 9.0 buffer, 5° C., 12 weeks",1.01 mg/mL
same,pH,"[1]; Glycine pH 9.0 buffer, 5° C., 16 weeks",9.30
same,FMdC,[1]; [35],1.00 mg/mL
same,pH,[1]; [35],9.33
same,FMdC,[1]; [36],1.00 mg/mL
same,pH,[1]; [36],9.00
same,FMdC,[1]; [37],1.01 mg/mL
same,pH,[1]; [37],9.33
same,FMdC,[1]; [38],1.00 mg/mL
same,pH,[1]; [38],9.30
same,FMdC,[1]; [39],0.99 mg/mL
same,pH,[1]; [39],9.32
same,FMdC,[1]; [40],1.00 mg/mL
same,pH,[1]; [40],9.00
same,pH,"[1]; Glycine pH 9.0 buffer, 35° C., 4 weeks",9.32
same,FMdC,[1]; [41],0.98 mg/mL
same,pH,[1]; [41],9.32
same,FMdC,[1]; [42],0.97 mg/mL
same,pH,[1]; [42],9.31
same,FMdC,[1]; [43],1.00 mg/mL
same,pH,[1]; [43],9.00
same,FMdC,"[1]; Glycine pH 9.0 buffer, 45° C., 4 weeks",0.99 mg/mL
same,FMdC,"[1]; Glycine pH 9.0 buffer, 45° C., 16 weeks",0.92 mg/mL
same,FMdC,"[1]; Glycine pH 9.0 buffer, 45° C., 24 weeks",0.88 mg/mL
same,FMdC,"[1]; Glycine pH 9.0 buffer, 55° C., 0 weeks",1.00 mg/mL
same,FMdC,"[1]; Glycine pH 9.0 buffer, 55° C., 4 weeks",0.91 mg/mL
same,shelf-life (time at which 5% degradation would be expected),[1]; pH 9,several years
same,antitumor activity in animal studies,human and rodent tumors,exhibited activity
